Like-named read-outs stand apart in the source and are kept apart here.
Assays:
[1] = test system: Bel-7404 (human liver carcinoma) cells; test: MTT antiproliferative assay, Bel-7404; type: cell-based; conditions: for IC50: mean of three independent determinations, read-out: Cytotoxicity IC50 Bel-7404
Experimental: (§1) Melting points were determined on an X4 apparatus (Beijing Tech Instrument Co. Ltd., Beijing, China) and were uncorrected. The ^1H and ^13C NMR spectra were recorded in CDCl3 on a Bruker AV-600 spectrometer at working frequencies 600 and 150 MHz and a Bruker AV-300 spectrometer at working frequencies 300 and 75 MHz, respectively. Chemical shifts are expressed in parts per million (δ) values and coupling constants (J) in Hertz. Infrared spectra were measured with a Thermo Scientific Nicolet IS-10 Spectrophotometer (Thermo Scientific, America). HREIMS was measured on an Agilent 6210 TOFMS instrument (Agilent Technologies, America). The cell proliferation assay was undertaken by a MTT method using 96-well plates on a […] MK3 analysis spectrometer (Thermo Scientific, Shanghai, China).
(§2) The detailed procedure has been reported in our previous work.
(§3) The antiproliferative activities of all steroidal thiosemicarbazones and their Pt(II) metal complexes were determined in vitro on Bel 7404, HeLa, and HEK293T. […] The results are summarized as IC50 values in μM in Table 1.

[2] = test system: HeLa (human cervical carcinoma) cells; test: MTT antiproliferative assay, HeLa; type: cell-based; conditions: for IC50: mean of three independent determinations, read-out: Cytotoxicity IC50 HeLa
Experimental: as §1, §2, §3

[3] = test system: HEK293T (normal kidney epithelial cells); test: MTT antiproliferative assay, HEK293T; type: cell-based; conditions: mean of three independent determinations, read-out: Cytotoxicity IC50 HEK293T
Experimental: as §1, §2
(§4) The antiproliferative activities of all steroidal thiosemicarbazones and their Pt(II) metal complexes were determined in vitro on Bel 7404, HeLa, and HEK293T.

[4] = MTT antiproliferative assay, HEK293T; type: cell-based; conditions: human, HEK293T normal kidney epithelial cells, mean of three independent determinations, read-out: Cytotoxicity IC50 HEK293T
Experimental: as §1, §2, §4

[5] = Homo sapiens, BEL-7404, MTT assay

Row | SMILES | IC50 [1, 5] [µM] | IC50 ([2]; Homo sapiens, HeLa, MTT assay) [µM] | melting point [°C] | IC50 ([1]; MTT assay) [µM] | Cytotoxicity against Bel 7404 cells (in words) ([1]; MTT assay, verbal summary) | SI Bel 7404 (Selectivity Index) ([1]; ratio IC50 HEK293T versus IC50 Bel 7404) | IC50 ([2]; MTT assay) [µM] | Cytotoxicity against HeLa cells (in words) ([2]; MTT assay, verbal summary) | SI HeLa (Selectivity Index) ([2]; ratio IC50 HEK293T versus IC50 HeLa) | IC50 [3] [µM] | IC50 [4] [µM]
1 | CC12CCC3c4ccc(O)cc4CCC3C1CCC2=NNC(N)=S (stereo not drawn) [Compound 2, 3β-Hydroxyestron-17-thiosemicarbazone] | 19 | 34 | 254 to 256 | – | – | – | – | – | – | – | –
2 | CC12CCC3c4ccc(O)cc4CCC3C1CCC2=[N+]1NC(N)=[S+][Pt-2]1([Cl])[Cl] (stereo not shown) [Compound 3, [PtL ^2 Cl 2]] | – | – | – | 39 | obvious cytotoxicity | > 5.1 | 23 | obvious cytotoxicity | > 8.7 | > 200 | –
3 | CC(=O)Oc1ccc2c(c1)CCC1C2CCC2(C)/C(=N/NC(N)=S)CCC12 (stereo not drawn) [Compound 5, 3β-Acetyloxyestron-17-thiosemicarbazone] | > 200 | 42 | 248 to 249 | – | – | – | – | – | – | – | > 200
4 | COC(=O)CCC(C)C1CCC2C3C(=O)CC4CC(=NNC(N)=S)CCC4(C)C3CCC12C (stereo not shown) [Compound 8, Methyl 3-Thiosemicarbazonyl-7-oxochenodeoxycholicate] | > 200 | 96 | 285 to 286 | – | – | – | – | – | – | – | > 200
5 | COC(=O)CCC(C)C1CCC2C3C(O)CC4CC(=NNC(N)=S)CCC4(C)C3CCC12C (stereo not shown) [Compound 10, Methyl 3-Thiosemicarbazonyl-7-hydroxychenodeoxycholicate] | > 200 | 142 | – | – | – | – | – | – | – | – | > 200
6 | COC(=O)CCC(C)C1CCC2C3CCC4CC(=NNC(N)=S)CCC4(C)C3CC(=O)C12C (stereo not shown) [Compound 13, Methyl 3-Thiosemicarbazonyl-12-oxo-7-deoxycholicate] | > 200 | > 200 | 125 to 127 | – | – | – | – | – | – | – | > 200
